Patent publication US5187188A, “Oxazole carboxylic acid derivatives” (Bristol-Myers Squibb Company, priority 1992, dated 1993)
Converted amounts (≈) assume the structure as drawn. Where a name gives a salt, the structure may show the parent alone.

What follows are molecules tested on human platelets (assay: In vitro inhibition of ADP-induced human platelet aggregation in platelet-rich plasma (aggregometer method of Born)). Details: human PRP, 0.5 mcg/mL ADP, about three minutes preincubation.
Format: cell-based
Description: The aggregometer method of Born, G. V. R., J. Physiol., (London), 162, 67-68, (1962) as modified by Mustard, J. F., et al., J. Lab. Clin. Med., 64, 548-599, (1964) Was used to assess the in vitro activity of the various compounds as to the inhibition of adenosine diphosphate (ADP) and collagen-induced platelet aggregation. The human volunteer donor's arm is cleansed with 70% ethyl alcohol. A sterile 20 ml syringe and needle are used to withdraw 20 ml of blood. The blood is immediately added to a test tube containing 3.8% sodium citrate to prevent clotting (1 part citrate to 9 parts blood).
Platelet rich plasma (PRP) was separated by centrifugation for 10 minutes at 1000 rpm (140×g) from citrated (3.8%) human blood. All glassware used for preparation of PRP is silicon treated. ADP in final concentration of 0.5 mcg/mL or 0.05 mL of a collagen suspension prepared according to the method described by Evans, G., et al., J. Exp. Med., 128, 877-894, (1968) was used to induce aggregation. The various compounds tested were dissolved in dimethylsulfoxide (DMSO) so that 5 mcl added to the platelet rich plasma would yield the desired test concentration. Vehicle control trials were done and compared with aggregation induced in platelet rich plasma containing various concentrations of the test compounds. Dose response curves were obtained and Inhibitor Concentration (IC50) values calculated.
The compounds listed in Table 1 were evaluated as inhibitors of human platelet aggregation in vitro in platelet-rich-plasma (PRP) using […] ADP as the inducing agent. The PRP was incubated with drug for about three minutes prior to the addition of the agonist. The extent of aggregation in the presence of various concentrations of test compounds was compared with that in vehicle controls. Dose-response curves were obtained and IC50 values determined.

| SMILES | IC50 [µg/mL] |
| --- | --- |
| CCOC(=O)C(=Cc1cccc(OCC(=O)OC(C)(C)C)c1)c1nc(-c2ccccc2)c(-c2ccccc2)o1 [Compound 7a, (E) and (Z)-Ethyl α-[[3-[[(1,1-dimethylethoxy)carbonyl]methoxyl]phenyl]methylene]-4,5-diphenyl-2-oxazoleacetate] | > 32 |
| CCOC(=O)/C(=C\c1cccc(OCC(=O)OC)c1)c1nc(-c2ccccc2)c(-c2ccccc2)o1 [Compound 7b, (Z)-Ethyl-α-[[3-(2-methoxy-2-oxoethoxy)phenyl]methylene]-4,5-diphenyl-2-oxazole acetate] | 10 |
| CCOC(=O)/C(=C/c1cccc(OCC(=O)OC)c1)c1nc(-c2ccccc2)c(-c2ccccc2)o1 [Compound 7c, (E)-Ethyl α-[[3-(2-methoxy-2-oxoethoxy)phenyl]methylene]-4,5-diphenyl-2-oxazole acetate] | 1 |
| COC(=O)COc1cccc(C=C(C(=O)OC)c2nc(-c3ccccc3)c(-c3ccccc3)o2)c1 [Compound 7d, Methyl (E) and (Z) α-[[3-(2-methoxy-2-oxoethoxy)phenyl]methylene]-4,5-diphenyl-2-oxazoleacetate] | 0.5 (≈ 1.06 µM) |
| CC(C)OC(=O)C(=Cc1cccc(OCC(=O)OC(C)(C)C)c1)c1nc(-c2ccccc2)c(-c2ccccc2)o1 [Compound 7e, (E) and (Z)-1-methylethyl α-[[3-[2-(1,1,-dimethylethoxy)-2-oxoethoxy]phenyl]-methylene]-4,5-diphenyl-2-oxazoleacetate] | > 32 |
| COC(=O)COc1cccc(C=C(C(=O)OC(C)C)c2nc(-c3ccccc3)c(-c3ccccc3)o2)c1 [Compound 7f, (E) and (Z) 1-Methylethyl α-[[3-[2-(methoxy-2-oxoethoxy)phenyl]methylene]-4,5-diphenyl-2-oxazoleacetate] | 5 (≈ 10 µM) |
| COC(=O)COc1cccc(C=C(C(N)=O)c2nc(-c3ccccc3)c(-c3ccccc3)o2)c1 [Compound 7g, (E) and (Z) Methyl [3-[3-amino-2-(4,5-diphenyl)-2-oxazolyl]-3-oxo-1-propenyl]phenoxy]acetate] | 2.5 (≈ 5.5 µM) |
| CNC(=O)C(=Cc1cccc(OCC(=O)OC)c1)c1nc(-c2ccccc2)c(-c2ccccc2)o1 [Compound 7h, (E) and (Z) Methyl [3-[2-(4,5-diphenyl-2-oxazolyl)-3-methylamino-3-oxo-propenyl]phenoxy]acetate] | 1.3 (≈ 2.77 µM) |
| COC(=O)COc1cccc(/C=C(\C(=O)N(C)C)c2nc(-c3ccccc3)c(-c3ccccc3)o2)c1 [Compound 7i, (Z)-Methyl [3-[3-(dimethylamino)-2-(4,5-diphenyl-2-oxazolyl)-3-oxo-1-propenyl]phenoxy]acetate] | > 32 |
| CCOC(=O)C(=Cc1cccc(OCC(=O)O)c1)c1nc(-c2ccccc2)c(-c2ccccc2)o1 [Compound 8a, (E) and (Z) Ethyl α-[[3-carboxymethoxy)phenyl]methylene]-4,5-diphenyl-2-oxazole acetate] | 0.17 |
| O=C(O)COc1cccc(C=C(C(=O)O)c2nc(-c3ccccc3)c(-c3ccccc3)o2)c1 [Compound 8b] | 9 (≈ 20.4 µM) |
| CNC(=O)C(=Cc1cccc(OCC(=O)O)c1)c1nc(-c2ccccc2)c(-c2ccccc2)o1 [Compound 8d, (E) and (Z) [3-[2-(4,5-Diphenyl-2-oxazolyl)-3-(methylamino)-3-oxo-propenyl]phenoxy]acetic acid] | 7 (≈ 15.4 µM) |
| CN(C)C(=O)/C(=C\c1cccc(OCC(=O)O)c1)c1nc(-c2ccccc2)c(-c2ccccc2)o1 [Compound 8e, (Z)-[3-[3-(Dimethylamino)-2-(4,5-diphenyl-2-oxazolyl)-3-oxo-1-propenyl]phenoxy]acetic acid] | 5.8 (≈ 12.4 µM) |
| CCOC(=O)C(Cc1cccc(OCC(=O)OC(C)(C)C)c1)c1nc(-c2ccccc2)c(-c2ccccc2)o1 (stereo not shown) [Compound 9a] | > 32 |
| CCOC(=O)C(Cc1cccc(OCC(=O)OC)c1)c1nc(-c2ccccc2)c(-c2ccccc2)o1 (stereo not drawn) [Compound 9b, Ethyl α-[(3-[(methoxycarbonyl)methoxyl]phenyl]-methyl]-4,5-diphenyl-2-oxazole acetate] | 0.75 |
| COC(=O)C(Cc1cccc(OCC(=O)OC(C)(C)C)c1)c1nc(-c2ccccc2)c(-c2ccccc2)o1 (stereo not drawn) [Compound 9c, Methyl α-[[3-(2-(1,1-dimethylethoxy-2-oxoethoxy)phenyl]methyl]-4,5-diphenyl-2-oxazole acetate] | > 32 |
| COC(=O)COc1cccc(CC(C(=O)OC)c2nc(-c3ccccc3)c(-c3ccccc3)o2)c1 (stereo not drawn) [Compound 9d, Methyl α-[[3-(2-methoxy-2-oxoethoxy)phenyl]methyl]-4,5-diphenyl-2-oxazole acetate] | 0.6 |

| SMILES | IC50 [µg/mL] |
| --- | --- |
| CC(C)OC(=O)C(Cc1cccc(OCC(=O)OC(C)(C)C)c1)c1nc(-c2ccccc2)c(-c2ccccc2)o1 (stereo not drawn) [Compound 9e, 1-Methylethyl α-[[3-[2-(1,1-dimethylethoxy)-2-oxoethoxy)phenyl]methyl]-4,5-diphenyl-2-oxazoleacetate] | > 32 |
| COC(=O)COc1cccc(CC(C(=O)OC(C)C)c2nc(-c3ccccc3)c(-c3ccccc3)o2)c1 (stereo not shown) [Compound 9f] | 3.5 (≈ 7.01 µM) |
| CC(C)(C)OC(=O)COc1cccc(CC(C(N)=O)c2nc(-c3ccccc3)c(-c3ccccc3)o2)c1 (stereo not shown) [Compound 9g, (t-Butyl [3-3-amino-2-(4,5-diphenyl-2-oxazolyl)-3-oxopropyl]phenoxy acetate] | > 32 |
| COC(=O)COc1cccc(CC(C(N)=O)c2nc(-c3ccccc3)c(-c3ccccc3)o2)c1 (stereo not drawn) [Compound 9h, Methyl[3-[α-Amino-2-(4,5-diphenyl-2-oxazolyl)-3-oxopropyl]phenoxy]acetic acid] | > 32 |
| CNC(=O)C(Cc1cccc(OCC(=O)OC)c1)c1nc(-c2ccccc2)c(-c2ccccc2)o1 (stereo not shown) [Compound 9i, Methyl[3-[2-(4,5-diphenyl-2-oxazolyl)-3-(methylamino)-3-oxo-propyl]phenoxy]acetate] | 3.5 (≈ 7.44 µM) |
| COC(=O)COc1cccc(CC(C(=O)N(C)C)c2nc(-c3ccccc3)c(-c3ccccc3)o2)c1 (stereo not shown) [Compound 9j] | 16 (≈ 33 µM) |
| CCOC(=O)C(Cc1cccc(OCC(=O)O)c1)c1nc(-c2ccccc2)c(-c2ccccc2)o1 (stereo not drawn) [Compound 10a, Ethyl α-[[3-hydroxy-2-oxoethoxyl]phenyl]methyl]-4,5-diphenyl-2-oxazole ace tate] | 0.06 (≈ 0.127 µM) |
| O=C(O)COc1cccc(CC(C(=O)O)c2nc(-c3ccccc3)c(-c3ccccc3)o2)c1 (stereo not drawn) [Compound 10b, α-[[3-(2-Hydroxy-2-oxoethoxy)phenyl]methyl]-4,5-diphenyl-2-oxazoleacetic acid, disodium salt] | 7 |
| COC(=O)C(Cc1cccc(OCC(=O)O)c1)c1nc(-c2ccccc2)c(-c2ccccc2)o1 (stereo not drawn) [Compound 10c, Methyl α-[[3-(2-hydroxy-2-oxoethoxy)phenyl]methyl]-4,5-diphenyl-2-oxazole acetate] | 0.037 |
| CC(C)OC(=O)C(Cc1cccc(OCC(=O)O)c1)c1nc(-c2ccccc2)c(-c2ccccc2)o1 (stereo not shown) [Compound 10d] | 0.6 (≈ 1.24 µM) |
| NC(=O)C(Cc1cccc(OCC(=O)O)c1)c1nc(-c2ccccc2)c(-c2ccccc2)o1 (stereo not shown) [Compound 10e, [3-[3-Amino-2-(4,5-diphenyl-2-oxazolyl)-3-oxopropyl]phenoxy]acetic acid] | 1.7 (≈ 3.84 µM) |
| CNC(=O)C(Cc1cccc(OCC(=O)O)c1)c1nc(-c2ccccc2)c(-c2ccccc2)o1 (stereo not shown) [Compound 10f, [3-[2-(4,5-Diphenyl-2-oxazolyl)-3-(methylamino)-3-oxopropyl]phenoxy]acetic acid] | 0.32 (≈ 0.701 µM) |
| CN(C)C(=O)C(Cc1cccc(OCC(=O)O)c1)c1nc(-c2ccccc2)c(-c2ccccc2)o1 (stereo not shown) [Compound 10g, [3-[3-(Dimethylamino)-2-(4,5-diphenyl-2-oxazolyl)-3-oxopropyl]phenoxy]acetic acid] | 1.7 (≈ 3.61 µM) |
| COC(=O)COc1cccc(/C=C(\C#N)c2nc(-c3ccccc3)c(-c3ccccc3)o2)c1 [Compound 16, (E)-Methyl[3-[2-cyano-2-(4,5-diphenyl-2-oxazolyl)ethenyl]phenoxy]acetate] | 8 (≈ 18.3 µM) |
| N#C/C(=C\c1cccc(OCC(=O)O)c1)c1nc(-c2ccccc2)c(-c2ccccc2)o1 [Compound 17, (E)-[3-[2-cyano-2-(4,5-diphenyl-2-oxazolyl)ethenyl]phenoxy]acetic acid] | 0.11 (≈ 0.26 µM) |
| COC(=O)COc1cccc(CC(C#N)c2nc(-c3ccccc3)c(-c3ccccc3)o2)c1 (stereo not shown) [Compound 18] | 0.36 (≈ 0.821 µM) |
| N#CC(Cc1cccc(OCC(=O)O)c1)c1nc(-c2ccccc2)c(-c2ccccc2)o1 (stereo not shown) [Compound 19, [3-[2-Cyano-2-(4,5-diphenyl-2-oxazolyl)ethyl]phenoxy]acetic acid] | 0.2 (≈ 0.471 µM) |
